Reference: patent US4228285A, “14-Hydroxy-6-oxamorphinans and 14-hydroxy-6-oxaisomorphinans” (priority 1979, dated 1980)
Like-named read-outs stand apart in the source and are kept apart here.

Key:
[1] = morphine antagonist rat tail flick test; format: in vivo; details: subcutaneous; for ED50: sc
Source text: (§1) Table 2 compares the oxymorphone and morphine antagonist activity of two of the preferred embodiments of this invention with the antagonist activity of butorphanol, in the standard oxymorphone-induced Straub tail test and the morphine antagonist rat tail flick test. In the Straub tail test, subcutaneously, BL-5951 and BL-5961 were about 5 times and about 1.6 times, respectively, as potent as butorphanol. Orally, they were about 55 times and about 1.7 times, respectively, as potent as butorphanol.

[2] = oxymorphone-induced Straub tail test (oxymorphone antagonist activity); format: in vivo; details: for antagonist potency relative to butorphanol, Straub tail test: vs butorphanol
Source text: as §1

[3] = format: in vivo; details: subcutaneous
[4] = format: in vivo; details: for agonist potency relative to butorphanol / agonist potency relative to morphine sulfate: mice; for agonist potency relative to butorphanol: vs butorphanol; for agonist potency relative to morphine sulfate: vs morphine sulfate
[5] = oral, read-out: Antagonist Activity ED50, Oxymorphone-induced Straub Tail, PO
[6] = sc, subcutaneous, read-out: Antagonist Activity ED50, Oxymorphone-induced Straub Tail, SC

| Compound | ED50 [1] [mg/kg] | antagonist potency relative to butorphanol, rat tail flick test ([1]; vs butorphanol) | antagonist potency relative to butorphanol, Straub tail test ([2]; oral) | ED50 [2, 5] [mg/kg] | ED50 [2, 6] [mg/kg] | antagonist potency relative to butorphanol, Straub tail test ([2]; subcutaneous) | antagonist potency relative to butorphanol, rat tail flick test (in words) ([1]; vs butorphanol) | agonist potency relative to butorphanol ([3]; rats, vs butorphanol) | agonist potency relative to morphine sulfate ([3]; rats, vs morphine sulfate) | Agonist Activity ED50, Rats (SC) [3] [mg/kg] | agonist potency relative to butorphanol ([4]; oral) | agonist potency relative to morphine sulfate ([4]; oral) | agonist potency relative to butorphanol ([4]; subcutaneous) | agonist potency relative to morphine sulfate ([4]; subcutaneous) | Agonist Activity ED50, Mice (PO) ([4]; oral) [mg/kg] | Agonist Activity ED50, Mice (SC) ([4]; subcutaneous) [mg/kg] |
| --- | --- | --- | --- | --- | --- | --- | --- | --- | --- | --- | --- | --- | --- | --- | --- | --- |
| Oc1ccc2c(c1)[C@]13CCN(CC4CC4)[C@H](C2)[C@]1(O)CCOC3 (racemic) [BL-5951, 17-Cyclopropylmethyl-3,14β-dihydroxy-6-oxamorphinan] | ~0.09 | about 4.8 times | about 55 times | ~1 | ~0.2 | about 5 times |  |  |  |  |  |  |  |  |  |  |
| Oc1ccc2c(c1)[C@]13CCN(CC4CCC4)[C@H](C2)[C@]1(O)CCOC3 (racemic) [BL-5961, 17-Cyclobutylmethyl-3,14β-dihydroxy-6-oxamorphinan] | ~0.4 |  | about 1.7 times | ~32 | 0.61 | about 1.6 times | about equipotent | about equipotent | about 4 times | 0.041 | about 2.5 times | about 1.4 times | about 1.4 times | about 7 times | 2.2 | 0.037 |
| CN1CC[C@]23COC(C)(C)C[C@@]2(O)[C@H]1Cc1ccc(O)cc13 (racemic) [BL-6021, 3,14β-Dihydroxy-7,7,17-trimethyl-6-oxamorphinan] |  |  |  |  |  |  |  |  |  |  |  |  | about 1.4 times | about 7 times |  | 0.037 |
| Oc1ccc2c(c1)[C@@]13CCCC[C@@]1(O)[C@@H](C2)N(CC1CCC1)CC3 [butorphanol, reference compound] | 0.43 |  |  | 55 | 0.98 |  |  |  |  | 0.040 |  |  |  |  | 5.6 | 0.051 |
